Data set [1] in a line: Antioxidant activity assessed as ferric ion reducing activity after 20 min by FRAP assay. The data set is classed as functional.
The next data set relates to Aspergillus oryzae. The experiment in a line: Antimicrobial activity against Aspergillus oryzae MTCC 3567 assessed as diameter of growth inhibition zone at 500 ug/ml after 72 hr by cup-plate method. It counts as functional. The conditions noted are these: MTCC 3567, 72 h, read-out: DIZ.
For another data set, the system named is Aspergillus terreus. Briefly: Antimicrobial activity against Aspergillus terreus MTCC 1782 assessed as diameter of growth inhibition zone at 500 ug/ml after 72 hr by cup-plate method. The data set is classed as functional. The conditions noted are these: MTCC 1782, 72 h, read-out: DIZ.
For another data set, the system named is Aspergillus flavus. Briefly: Antimicrobial activity against Aspergillus flavus MTCC 1973 assessed as diameter of growth inhibition zone at 500 ug/ml after 72 hr by cup-plate method. It counts as functional. Particulars: MTCC 1973, 72 h, read-out: DIZ; call rule not given here.
A short description of data set [2]: Metal chelating activity of the compound assessed as inhibition of ferrozine Fe2+ complex formation at 25 to 100 ug/ml after 10 min by spectrophotometric analysis. It counts as physicochemical.
The subject of a further data set is Aspergillus niger. The experiment in a line: Antimicrobial activity against Aspergillus niger MTCC 281 assessed as diameter of growth inhibition zone at 500 ug/ml after 72 hr by cup-plate method. The data set is classed as functional. Particulars: MTCC 281, 72 h, read-out: DIZ.
Another data set relates to Escherichia coli. Briefly: Antimicrobial activity against Escherichia coli MTCC 723 assessed as diameter of growth inhibition zone at 500 ug/ml after 24 hr by cup-plate method. The conditions noted are these: MTCC 723, 24 h, read-out: DIZ. It counts as functional.
Another data set concerns Staphylococcus aureus. The experiment in a line: Antimicrobial activity against Staphylococcus aureus ATCC 29513 assessed as diameter of growth inhibition zone at 500 ug/ml after 24 hr by cup-plate method. The data set is classed as functional. The conditions noted are these: ATCC 29513, 24 h, read-out: DIZ.
The next data set has as its system Pseudomonas aeruginosa. The experiment in a line: Antimicrobial activity against Pseudomonas aeruginosa MTCC 1688 assessed as diameter of growth inhibition zone at 500 ug/ml after 24 hr by cup-plate method. The data set is classed as functional. The conditions noted are these: MTCC 1688, 24 h, read-out: DIZ.
For the next data set, the system named is Klebsiella pneumoniae. The experiment in a line: Antimicrobial activity against Klebsiella pneumoniae NCTC 13368 assessed as diameter of growth inhibition zone at 500 ug/ml after 24 hr by cup-plate method. The data set is classed as functional. The conditions noted are these: NCTC 13368, 24 h, read-out: DIZ.
In data set [3] the test system is Radical scavenging activity. The experiment in a line: Antioxidant activity assessed as DPPH radical scavenging activity at 75 ug/ml by spectrophotometric analysis. It counts as functional. (Loss of DPPH colour is used to gauge radical scavenging.)
Data set [4] concerns Radical scavenging activity. The experiment in a line: Antioxidant activity assessed as DPPH radical scavenging activity at 50 ug/ml by spectrophotometric analysis. The data set is classed as functional.
The subject of data set [5] is Radical scavenging activity. The experiment in a line: Antioxidant activity assessed as DPPH radical scavenging activity at 25 ug/ml by spectrophotometric analysis. It counts as functional.
For data set [6], the system named is Radical scavenging activity. The experiment in a line: Antioxidant activity assessed as DPPH radical scavenging activity at 100 ug/ml by spectrophotometric analysis. The data set is classed as functional.

On to `Cc1ccc(-c2cc(-c3c(-c4ccccc4)[nH]c4ccc(Cl)cc34)c3c(N)n[nH]c3n2)cc1`, for which, in [1], the Activity entry is “Dose-dependent effect”. Moreover, the zone of inhibition at 500 µg/mL with Aspergillus oryzae was 10 mm; with Aspergillus terreus, 11 mm; in the data set with Aspergillus flavus, 5 mm; in the data set on Aspergillus niger it was 8 mm; in the data set on Escherichia coli, 6 mm; with Staphylococcus aureus it was 10 mm. Besides, the zone of inhibition at 500 µg/mL in the data set with Pseudomonas aeruginosa and in the data set on Klebsiella pneumoniae was 9 mm each time. Also, in data set [2], the “inhibition (INH)” value is given as “Active”.

Consider `Nc1n[nH]c2nc(-c3ccc(Cl)cc3)cc(-c3c(-c4ccccc4)[nH]c4ccc(Cl)cc34)c12`, for which the zone of inhibition at 500 µg/mL with Aspergillus oryzae came to 10 mm; in the data set with Aspergillus terreus it was 10 mm; with Aspergillus flavus it was 8 mm; in the data set with Aspergillus niger, 6 mm; in the data set on Escherichia coli it was 10 mm; in the data set with Staphylococcus aureus, 10 mm. Besides, the zone of inhibition at 500 µg/mL in the data set on Pseudomonas aeruginosa was 6 mm; in the data set with Klebsiella pneumoniae, 11 mm. Also, in [3], the Activity came out at 73.5%.

In the case of `Nc1ncnc2nc(-c3ccccc3)cc(-c3c(-c4ccccc4)[nH]c4ccc(Cl)cc34)c12`, the zone of inhibition at 500 µg/mL is 10 mm with Aspergillus oryzae; 5 mm with Aspergillus terreus; 8 mm in the data set on Aspergillus flavus; 10 mm in the data set with Aspergillus niger; 9 mm in the data set with Escherichia coli; 10 mm with Staphylococcus aureus. The zone of inhibition at 500 µg/mL is 8 mm with Pseudomonas aeruginosa and 5 mm with Klebsiella pneumoniae. The Activity in data set [4] came out at 78%.

`Nc1ncnc2nc(-c3ccc(Cl)cc3)cc(-c3c(-c4ccccc4)[nH]c4ccccc34)c12`: the zone of inhibition at 500 µg/mL in the data set with Aspergillus oryzae is 2 mm; in the data set on Aspergillus terreus, 10 mm; in the data set on Aspergillus flavus it was 8 mm; with Aspergillus niger, 10 mm; with Escherichia coli it was 8 mm; in the data set with Staphylococcus aureus, 10 mm. Further, the zone of inhibition at 500 µg/mL was found to be 2 mm with Pseudomonas aeruginosa and 5 mm in the data set on Klebsiella pneumoniae. Moreover, the Activity in data set [5] was found to be 66.8%.

`Nc1n[nH]c2nc(-c3ccccc3)cc(-c3c(-c4ccccc4)[nH]c4ccccc34)c12`: the zone of inhibition at 500 µg/mL in the data set with Aspergillus oryzae was 12 mm; in the data set with Aspergillus terreus, 8 mm; in the data set on Aspergillus flavus, 6 mm; in the data set on Aspergillus niger, 10 mm; in the data set on Escherichia coli, 10 mm; with Staphylococcus aureus, 8 mm. Besides, the figures for the zone of inhibition at 500 µg/mL in the data set on Pseudomonas aeruginosa and with Klebsiella pneumoniae were 11 mm and 10 mm, respectively. Further, in [4], the Activity is 75.5%.

In the case of `Cc1ccc2[nH]c(-c3ccccc3)c(-c3cc(-c4ccccc4)nc4[nH]nc(N)c34)c2c1`, the Activity entry was “Dose-dependent effect” in [1], 68.2% in data set [6] and 75.2% in data set [3]. Also, the zone of inhibition at 500 µg/mL in the data set on Aspergillus oryzae stood at 14 mm; in the data set on Aspergillus terreus it was 5 mm; in the data set with Aspergillus flavus it was 6 mm; in the data set on Aspergillus niger, 2 mm; with Escherichia coli it was 8 mm; in the data set with Staphylococcus aureus it was 10 mm. Besides, the values for the zone of inhibition at 500 µg/mL with Pseudomonas aeruginosa and with Klebsiella pneumoniae were 5 mm and 9 mm, respectively.

For the molecule `Cc1ccc2[nH]c(-c3ccccc3)c(-c3cc(-c4ccc(Cl)cc4)nc4nc[nH]c(=O)c34)c2c1`, the zone of inhibition at 500 µg/mL came to 8 mm in the data set on Aspergillus oryzae; 9 mm in the data set with Aspergillus terreus; 8 mm in the data set with Aspergillus flavus; 11 mm in the data set with Aspergillus niger; 8 mm in the data set with Escherichia coli; 9 mm in the data set with Staphylococcus aureus. Moreover, the zone of inhibition at 500 µg/mL with Pseudomonas aeruginosa stood at 8 mm; with Klebsiella pneumoniae it was 6 mm. Also, in data set [4], the Activity was found to be 72.7%.

Regarding `Cc1ccc(-c2cc(-c3c(-c4ccccc4)[nH]c4ccc(Cl)cc34)c3c(=O)[nH]cnc3n2)cc1`, the zone of inhibition at 500 µg/mL with Aspergillus oryzae is 10 mm; with Aspergillus terreus, 9 mm; in the data set on Aspergillus flavus it was 8 mm; in the data set on Aspergillus niger it was 11 mm; in the data set on Escherichia coli it was 10 mm; in the data set with Staphylococcus aureus, 8 mm. For the same molecule, the zone of inhibition at 500 µg/mL in the data set with Pseudomonas aeruginosa is 5 mm; with Klebsiella pneumoniae, 11 mm. The Activity in data set [5] came out at 61.5%.

As for `Cc1ccc(-c2cc(-c3c(-c4ccccc4)[nH]c4ccc(C)cc34)c3c(=O)[nH]cnc3n2)cc1`, the zone of inhibition at 500 µg/mL was determined as 8 mm with Aspergillus oryzae; 10 mm in the data set with Aspergillus terreus; 5 mm with Aspergillus flavus; 10 mm with Aspergillus niger; 5 mm in the data set on Escherichia coli; 8 mm in the data set on Staphylococcus aureus. The figures for the zone of inhibition at 500 µg/mL with Pseudomonas aeruginosa and in the data set on Klebsiella pneumoniae were 10 mm and 12 mm, respectively. The Activity in data set [5] is 74.4%.

As for `O=c1[nH]cnc2nc(-c3ccccc3)cc(-c3c(-c4ccccc4)[nH]c4ccc(Cl)cc34)c12`, the zone of inhibition at 500 µg/mL in the data set on Aspergillus oryzae is 12 mm; with Aspergillus terreus it was 10 mm; with Aspergillus flavus, 9 mm; with Aspergillus niger, 12 mm; in the data set with Escherichia coli, 12 mm; with Staphylococcus aureus, 5 mm. Also, the zone of inhibition at 500 µg/mL with Pseudomonas aeruginosa is 8 mm; in the data set on Klebsiella pneumoniae, 14 mm. The Activity in data set [6] turned out to be 78.8%; in data set [3] it was 74.1%.

For the origin of these results see ChEMBL document CHEMBL3045544, “Synthesis, antimicrobial and antioxidant activities of some new indole derivatives containing pyridopyrimidine and pyrazolopyridine moieties” (Med Chem Res, 2013).
